Measured values as given in US20050261246A1, “Methods for treating inflammatory and autoimmune diseases” (priority 2004, published 2005).

What was measured:
[1] = tested on: arthritic rats; settings: cited from earlier work
[2] = tested on: TNF-α production by macrophages; settings: LPS- or bacteria-induced; cited from earlier work
[3] = healthy mice; cited from earlier work
[4] = tested on: Encephalitozoan intestinalis; settings: cited from earlier work
[5] = tested on: Japanese encephalitis; settings: flavivirus infection; cited from earlier work
[6] = tested on: tumor growth; settings: cited from earlier work
[7] = tested on: VEGF production in human cancer cell lines; experiment: VEGF production in human cancer cell lines (ELISA); format: cell-based
Description: (A) Effect of SNS on VEGF production was analyzed in two cancer cell lines (both supernatants and cell lysates). (B) The supernatant from control and drug treated H460 cells was analyzed for the level of VEGF (pg/ml). C. […] Statistical analyses were performed using one-way ANOVA.
As discussed above, SNS and pancratastatin were originally synthesized as an anti-cancer agent. The inventors also examined the effect of SNS and pancratastatin on the production of VEGF in human cancer cell lines (FIG. 2). […] This analysis had been performed at least 3-5 times depending on the cell lines and drug used, with statistical analysis performed using one-way ANOVA.

SMILES | footpad volumes, severe chronic inflammation ([1]; day 21 post-CFA challenge, treated vs untreated arthritic rats) | inflammation, acute phase ([1]; given from the time of CFA challenge, day 14 post-CFA challenge) | TNF-α production by macrophages [2] | growth rate [3] | activity against the parasite [4] | survival rate [5] | potency in inhibiting tumor growth relative to SNS [6] | VEGF production, narcistatin compared with pancratistatin [7] | effect on VEGF production/secretion ([7]; human cancer cell lines, ELISA)
O=C1N[C@@H]2C(=C[C@H](O)[C@@H](O)[C@H]2O)c2cc3c(c(O)c21)OCO3 [narciclasine] | no differences in their footpad volumes | able to inhibit inflammation during the acute inflammatory phase | inhibits lipopolysaccharide (LPS)- or bacteria-induced production of TNF-α by macrophages | inhibits the growth rate of healthy mice | – | – | – | – | –
O=C1N[C@H]2[C@H](O)[C@H](O)[C@@H](O)[C@H](O)[C@@H]2c2cc3c(c(O)c21)OCO3 [pancratistatin] | – | – | – | – | activity against the parasite Encephalitozoan intestinalis | up to 100% | more potent than SNS in inhibiting tumor growth | comparable inhibition on VEGF production | inhibitory effect
